Publication PMC9293909 (Nature Communications, 2022)
Several values for one entry are separate records, joined by “and”; a condition that tells them apart may be missing. Equal values may be shown once. Read-outs that look alike come from different tables or passages of the source.

Legend:
rA3R = target: T1, rA3R (Rattus norvegicus, UniProt P28647); test: NanoBRET competition binding with AV039; details: displacement of AV039; read-out: pKi rA3R (converted)
T1 construct: expressed in transfected cells; host or cells: Flp-In-CHO (ThermoFisher R75807), pcDNA5/FRT
T1 sequence (P28647 1-320): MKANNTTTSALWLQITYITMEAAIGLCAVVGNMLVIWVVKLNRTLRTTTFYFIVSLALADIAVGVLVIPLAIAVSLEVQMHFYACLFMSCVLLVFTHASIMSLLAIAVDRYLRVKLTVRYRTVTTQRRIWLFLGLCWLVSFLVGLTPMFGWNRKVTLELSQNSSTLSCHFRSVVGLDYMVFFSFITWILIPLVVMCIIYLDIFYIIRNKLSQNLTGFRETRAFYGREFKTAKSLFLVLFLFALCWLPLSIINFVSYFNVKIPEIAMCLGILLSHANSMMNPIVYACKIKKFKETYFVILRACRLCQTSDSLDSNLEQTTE
Method: Here data was fitted with the ‘two-site Ki model’, build into Prism to determine high affinity and low affinity values for the unlabelled agonists. […] BRET was measured following the addition of the Nluc substrate, Furimazine (0.1 μM).

hA1R:Gi1 = target: T2, hA1R:Gi1 (Homo sapiens, UniProt P30542); test: cAMP inhibition in PTX-treated CHO-K1-hA1R cells with PTX-insensitive Gi1; type: cell-based
T2 construct: host or cells: CHO-K1-hA1R (made in-house), PTX-treated
Method: (§1) Cells were then incubated for 24 h before addition of 100 ng/ml PTX, to inhibit activity of endogenous Gαi/o, and then incubated for a further 16-18 h. Transfected cells were then assayed as per cAMP inhibition experiments, but co-stimulated with agonist and 100 nM forskolin.

[1] = target: T3, hA1R Q293^8.48 alanine mutant (Homo sapiens, UniProt P30542, Q293A); test: cAMP inhibition, Flp-In-CHO hA1R Q293A; type: cell-based; details: Fig4j
T3 construct: expressed in transfected cells
Text: Cell lines were maintained using standard subculturing routines as guided by the European Collection of Cell Culture (ECACC) and checked annually for mycoplasma infection using an EZ-PCR mycoplasma test kit from Biological Industries (Kibbutz Beit-Haemek, Israel). To investigate the signalling properties of the rat A3R (rA3R) and mutants of the human A1R (hA1R), stable cell lines were generated using Flp-In-CHO cells (ThermoFisher - R75807). Untagged hA1R from sigNanoLuciferase (Nluc)-A1R in pcDNA3.1+ and untagged rA3R from sigNluc-A3R in pcDNA3.1 + (both gifted by Dr Steve Briddon (University of Nottingham)) were cloned into the pcDNA5/FRT expression vector (Thermo Fisher Scientific). Mutations within the hA1R were made using the QuikChange Lightening Site-Directed Mutagenesis Kit (Agilent Technologies) in accordance with the manufacturer’s instructions. Constructs for generating Goa/b interfering and scrambled peptides were generated by PCR and cloned into the BamHI/HindIII site of pcDNA3.1- as described in Gilchrist et al.[60],. Prior to the initiator codon a Kozak sequence was included for enhanced translation. The peptide sequences used were: for Goa […], for Gob […], and for the scrambled peptide […] was used. Constructs were sequenced to confirm fidelity. […]

hA1R:Gi2 = hA1R:Gi2 (Homo sapiens, UniProt P30542); test: cAMP inhibition in PTX-treated CHO-K1-hA1R cells with PTX-insensitive Gi2; type: cell-based; details: inhibition of forskolin-stimulated cAMP
Method: as §1

respiration (f, VT, VE) = test: Urethane-anaesthetised rat, respiration
Method: The femoral vein was catheterised for drug delivery.
Adult male Sprague–Dawley rats (400-500 g) were anaesthetised with urethane and instrumented as described above, with the exception that the arterial cannulation was not performed.
Changes in f, VT, and VE were measured. If the dosing occurred close to a respiratory event such as a sigh a second IV dose was administered, with 20 min recovery periods either side of the injection.

[2] = Fig6g, average, n 4, CPA alone or CPA + BnOCPA
[3] = Fig6g, individual animal, CPA alone or CPA + BnOCPA

T3 sequence (P30542 whole entry Q293A): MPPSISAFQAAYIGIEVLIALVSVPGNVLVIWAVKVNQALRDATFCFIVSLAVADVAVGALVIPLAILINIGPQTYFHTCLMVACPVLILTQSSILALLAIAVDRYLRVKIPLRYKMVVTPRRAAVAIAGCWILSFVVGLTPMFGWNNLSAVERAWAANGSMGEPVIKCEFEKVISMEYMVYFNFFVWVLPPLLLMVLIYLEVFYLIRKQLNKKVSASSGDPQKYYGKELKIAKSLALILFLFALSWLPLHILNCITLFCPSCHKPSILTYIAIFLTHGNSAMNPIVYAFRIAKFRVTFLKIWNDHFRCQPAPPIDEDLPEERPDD
T2 sequence (P30542 whole entry): as the sequence (P30542 whole entry Q293A) above, with A293Q counted along it
hA1R:Gi2, sequence (P30542 whole entry): as the sequence (P30542 whole entry Q293A) above, with A293Q counted along it

OC[C@H]1O[C@@H](n2cnc3c(N[C@@H]4CCC[C@H]4O)ncnc32)[C@H](O)[C@@H]1O [HOCPA, (2 R,3 R,4 S,5 R)−2-(6-{[(1 R,2 R)−2-hydroxycyclopentyl]amino}−9H-purin-9-yl)−5-(hydroxymethyl)oxolane-3,4-diol]
Ki (rA3R): 676 nM
Emax (hA1R:Gi1; inhibition of forskolin-stimulated cAMP): -37.1%
EC50 (hA1R:Gi1; read-out: pEC50 Gi1 (converted)): 8.91 nM
IC50 ([1]; individual replicate, read-out: cAMP inhibition potency, 293A (converted)): 3.61 nM and 7.23 nM and 5 nM and 4.17 nM and 2.86 nM and 3.71 nM
IC50 ([1]; read-out: cAMP inhibition potency, 293A, Average (converted)): 4.27 nM

OC[C@H]1O[C@@H](n2cnc3c(NC4CCCC4)ncnc32)[C@H](O)[C@@H]1O [CPA, N^6-Cyclopentyladenosine]
Emax (hA1R:Gi2): -32.2%
tidal volume VT after injection (respiration (f, VT, VE); CPA 6 µg kg^−1 IV, resting 1.1 ± 0.1): 0.8 ± 0.1 mL
respiratory frequency f after injection (respiration (f, VT, VE); CPA 6 µg kg^−1 IV, resting 143 ± 11): 108 ± 10 BrPM
minute ventilation VE after injection (respiration (f, VT, VE); CPA 6 µg kg^−1 IV, resting 155 ± 28): 99 ± 19 mL/min
effect on Freq (difference from previous baseline) (respiration (f, VT, VE); CPA 6 µg kg^−1 alone): 52 ± 8 breaths/min
effect on VE (difference from previous baseline) (respiration (f, VT, VE); CPA 6 µg kg^−1 alone): 59 ± 9 mL/min
Frequency (respiration) (respiration (f, VT, VE); Fig6b, individual rat): 97.7 and 153.2 and 77.8 and 92.8 and 134.8 and 131.4 and 100.3 and 76.5
Frequency (respiration), Average (respiration (f, VT, VE); Fig6b, n 8): 108.1
VT (respiration (f, VT, VE); Fig6c, individual rat): 1 and 1.31 and 0.72 and 0.49 and 0.42 and 0.81 and 1.39
VT, Average (respiration (f, VT, VE); Fig6c, n 8): 0.82
Freq, Average (respiration (f, VT, VE); [2]): -52
VE, Average (respiration (f, VT, VE); [2]): -59
VT, Average (respiration (f, VT, VE); [2]): -0.065
Freq (respiration (f, VT, VE); [3]): -58 and -41 and -36 and -72
VE (respiration (f, VT, VE); [3]): -86 and -53 and -48 and -49
VT (respiration (f, VT, VE); [3]): -0.31 and 0.1 and -0.15
VE (respiration (f, VT, VE); Fig6d, individual rat): 110 and 203 and 69 and 42 and 63 and 139 and 46 and 116
VE, Average (respiration (f, VT, VE); Fig6d, n 8): 99
